According to publication PMC8070745, “FEN1 Blockade for Platinum Chemo-Sensitization and Synthetic Lethality in Epithelial Ovarian Cancers” (Cancers, 2021):

How the values were obtained:
ATM-deficient HeLa cells = assay: FEN1 inhibitor cytotoxicity, ATM-deficient HeLa; assay type: cell-based; details: vs HeLa control
POLβ KO A2780cis cells [1] = assay: Clonogenic assay, POLβ KO A2780cis; assay type: cell-based, human; details: vs POLβ proficient A2780cis
Description: Clonogenic assay: In the clonogenic assay (colony formation assays), 32 cells/cm2 were seeded in 6-well plates and left at 37°C in a 5% CO2 atmosphere. Cisplatin (5µM) and/or FEN1i (10µM) and/or Importazole (5 µM, Selleckem, S8446 ) were added at the indicated concentrations and the plates were left at 37 °C in a 5% CO 2 atmosphere for 14 days. Later, the plates were washed with PBS, fixed and stained with a crystal violet, acetic acid and methanol solution and colonies were counted. […]

[2] = tested on: XRCC1 deficient HeLa cells; assay: FEN1 inhibitor cytotoxicity, XRCC1 deficient HeLa; assay type: cell-based; details: vs HeLa control
PEO4 cells = assay: γH2AX analysis, PEO4; assay type: cell-based, human; details: FEN1i plus cisplatin
Description: (§1) Graphical representation and statistical analysis of mean tail moment was performed in GraphPad Prism 6 (GraphPad, La Jolla, USA). All experiments were done in duplicate three times.
(§2) γH2AX FACS: For monitoring DNA double strand break accumulation by γH2AX FACS, 1.05×104 Cells/cm2 were seeded in 6-well plates and left overnight at 37°C in a 5% CO 2 atmosphere. Cisplatin (5µM) or FEN1i (10µM) was later added to cells and incubated for 24h and 48h at 37°C in a 5% CO2 atmosphere. Cells were collected by trypsinization, washed […]
(§3) with ice cold PBS and fixed in 70% ethanol for 1h at -20°C. After removal of the fixative solution by centrifugation, cells were stained with 2 µg/ml of phospho-Histone (γH2AX) Ser139 (16202A, Millipore, UK) to detect DSBs.
(§4) Cell cycle progression: Cells were treated with 20 µg/ml RNase A (12091021, Invitrogen) and then 10 µg/ml Propidium Iodide (P4170, Sigma Aldrich) was added to determine the cell cycle distribution. The samples were analysed on a Beckman-Coulter FC500 flow cytometer using a 488nm laser for excitation and emission data for PI collected using a 620nm bandpass filter (FL3) and a 525nm bandpass filter (FL1) for FITC-anti-phospho-Histone H2A.X. […]
(§5) Graphical representation and statistical analysis was performed in GraphPad Prism 7 (GraphPad, La Jolla, USA). […]

A2780cis cells = assay: Neutral COMET assay, A2780cis; assay type: cell-based, human; details: combination with cisplatin vs cisplatin or FEN1i monotherapy
Description: (§6) (1:200, ab26343). Infrared dye-labelled secondary antibodies (Li-Cor) [IRDye 800CW Donkey Anti-Rabbit IgG and IRDye 680CW Donkey Anti-Mouse IgG] were incubated at a dilution of 1:10000 for 1 h. Membranes were scanned with a LiCor Odyssey machine (700 and 800 nm) to determine protein expression. ß-Tubulin or ß-actin was used as a loading controls for the whole cell lysates. GADPH and YYI were used as loading controls to cytoplasmic and nuclear fractions, respectively. First incubation was with FEN1 antibody and then imaged. This was followed by incubation with loading control and then imaged for analysis. Bar charts show means of optical density (O.D.) ± S.D and all data is representative of at least three independent experiments. qRT-PCR analysis of FEN1 gene expre ssion: RNA was extracted using the RNeasy Mini Kit (74104, Qiagen) and quantified using a Nanodrop 2000c (Thermo Fisher Scientific). cDNA synthesis was performed using the RT2 First Strand Kit (330404, Qiagen). Real time PCR was carried out on an Applied Biosystems […] FAST cycler.
(§7) Neutral COMET assay: 1.0x10^5 cells per well were seeded in 6 well tissue culture plates and incubated at 37°C and 5% CO2 overnight. […] Fifty comets were scored per sample using Comet Assay III/IV image analysis software (Perceptive Instruments, Bury St Edmonds, UK). […]

[3] = tested on: MRE11 deficient A2780cis cells; assay: FEN1 inhibitor cytotoxicity, MRE11 deficient A2780cis; assay type: cell-based, human; details: vs A2780cis control
POLβ KO A2780cis cells [4] = assay: γH2AX analysis, POLβ KO A2780cis; assay type: cell-based, human; details: FEN1i-treated
Description: as §1, §2, §3, §4, §5

FEN1 mRNA in A2780 cells = assay: qRT-PCR FEN1 mRNA expression, A2780; assay type: cell-based, human; details: 24 h exposure to cisplatin
Description: as §6, §7

[5] = tested on: FEN1 mRNA in A2780cis cells; assay: qRT-PCR FEN1 mRNA expression, A2780cis; assay type: cell-based, human; details: 24 h exposure to cisplatin
Description: as §6, §7

`Cc1csc2c1c(=O)n(O)c(=O)n2-c1ccccc1` [PTPD, 3-hydroxy-5-methyl-1-phenylthieno [2,3 d]pyrimidine-2,4(1H,3H)-dione] was tested, and the “sensitivity to FEN1 inhibitor” value (ATM-deficient HeLa cells) was “did not observe increased sensitivity”, the “sensitivity to FEN1 inhibitor” value (POLβ KO A2780cis cells [1]) was “more sensitive to FEN1 inhibition” and the “sensitivity to FEN1 inhibitor” value [2] was “did not observe any increased sensitivity”. The γH2AX nuclear foci (PEO4 cells) was “increased nuclear γH2AX nuclear foci accumulation”, the “DNA breaks (neutral COMET)” value (A2780cis cells) was “substantially increased DNA breaks” and the “sensitivity to FEN1 inhibitor” value [3] was “did not observe increased sensitivity”. The “DSBs (γH2AX)” value (POLβ KO A2780cis cells [4]) was “increased DSBs”.
`N.N.[Cl][Pt][Cl]` [cisplatin] was tested, and the “FEN1 mRNA expression after cisplatin” value (FEN1 mRNA in A2780 cells) was “transient induction of FEN1 mRNA expression on day 1” and the “FEN1 mRNA expression after cisplatin” value [5] was “increased by day 1 and persisted at least until day 4”.
